{"source": "paper PMC5493479", "about": "(Methods (San Diego, Calif.), 2016)", "target": "T1, HisRS (Histidyl-tRNA synthetase) (Escherichia coli, UniProt P60906)", "T1 sequence (P60906 2-424)": "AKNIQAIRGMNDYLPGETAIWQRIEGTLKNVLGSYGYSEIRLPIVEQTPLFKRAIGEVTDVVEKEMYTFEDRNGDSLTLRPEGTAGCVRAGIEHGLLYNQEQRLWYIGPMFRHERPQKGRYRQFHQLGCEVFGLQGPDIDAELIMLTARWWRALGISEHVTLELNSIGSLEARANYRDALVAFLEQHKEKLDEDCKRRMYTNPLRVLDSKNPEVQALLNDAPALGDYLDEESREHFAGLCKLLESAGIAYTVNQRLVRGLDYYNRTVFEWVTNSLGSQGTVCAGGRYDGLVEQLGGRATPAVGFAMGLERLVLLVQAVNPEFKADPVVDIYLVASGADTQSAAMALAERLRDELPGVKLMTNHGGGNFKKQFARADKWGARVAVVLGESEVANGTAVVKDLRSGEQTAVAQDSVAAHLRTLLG", "test": "differential scanning fluorimetry", "format": "binding", "conditions": "10 mM ATP; apo Tm 53.4 ± 1.1 °C; 10 uM enzyme, 20 mM HEPES pH 7.5, 150 mM KCl", "data": [{"smiles": "Nc1ncnc2c1ncn2[C@@H]1O[C@H](COP(=O)(O)OP(=O)(O)OP(=O)(O)O)[C@@H](O)[C@H]1O", "note": "[ATP]", "values": [{"measurement": "ATP 10 mM Tm (°C)", "value": "55.8 ± 0.5", "unit": "°C"}]}]}
